Experimental data from ChEMBL document CHEMBL4507276 (2021).

Experiments:
[1] = target: Alpha-2C adrenergic receptor (Homo sapiens) (UniProt P18825); conditions: Compound concentration 10.0 uM
[2] = target: Acetylcholinesterase (Homo sapiens) (UniProt P22303); assay: ACHE/H Cerep selectivity data (BI); conditions: Compound concentration 20.0 uM
[3] = target: Gamma-aminobutyric acid receptor subunit alpha-1 (Rattus norvegicus) (UniProt P62813); assay: BZD/CENTR/R Cerep selectivity data (BI); conditions: Compound concentration 20.0 uM
[4] = target: Gamma-aminobutyric acid receptor subunit alpha-1 (Homo sapiens) (UniProt P14867); assay: GABAA1(H) Cerep selectivity data (BI); conditions: filed as agonist, Compound concentration 20.0 uM
[5] = target: Prostacyclin receptor (Homo sapiens) (UniProt P43119); assay: PGI2/H Cerep selectivity data (BI); conditions: Compound concentration 20.0 uM
[6] = target: Tyrosine-protein kinase ABL1 (Homo sapiens) (UniProt P00519); assay: ABL1 Invitrogen selectivity data (BI); conditions: Compound concentration 3.0 uM
[7] = target: Calcium/calmodulin-dependent protein kinase type II subunit alpha (Homo sapiens) (UniProt Q9UQM7); assay: CAMK2A Invitrogen selectivity data (BI); conditions: Compound concentration 3.0 uM
[8] = target: T1, Serine/threonine-protein kinase DCLK2 (Homo sapiens) (UniProt Q8N568); assay: DCAMKL2 Invitrogen selectivity data (BI); conditions: Compound concentration 3.0 uM
T1 sequence (whole entry): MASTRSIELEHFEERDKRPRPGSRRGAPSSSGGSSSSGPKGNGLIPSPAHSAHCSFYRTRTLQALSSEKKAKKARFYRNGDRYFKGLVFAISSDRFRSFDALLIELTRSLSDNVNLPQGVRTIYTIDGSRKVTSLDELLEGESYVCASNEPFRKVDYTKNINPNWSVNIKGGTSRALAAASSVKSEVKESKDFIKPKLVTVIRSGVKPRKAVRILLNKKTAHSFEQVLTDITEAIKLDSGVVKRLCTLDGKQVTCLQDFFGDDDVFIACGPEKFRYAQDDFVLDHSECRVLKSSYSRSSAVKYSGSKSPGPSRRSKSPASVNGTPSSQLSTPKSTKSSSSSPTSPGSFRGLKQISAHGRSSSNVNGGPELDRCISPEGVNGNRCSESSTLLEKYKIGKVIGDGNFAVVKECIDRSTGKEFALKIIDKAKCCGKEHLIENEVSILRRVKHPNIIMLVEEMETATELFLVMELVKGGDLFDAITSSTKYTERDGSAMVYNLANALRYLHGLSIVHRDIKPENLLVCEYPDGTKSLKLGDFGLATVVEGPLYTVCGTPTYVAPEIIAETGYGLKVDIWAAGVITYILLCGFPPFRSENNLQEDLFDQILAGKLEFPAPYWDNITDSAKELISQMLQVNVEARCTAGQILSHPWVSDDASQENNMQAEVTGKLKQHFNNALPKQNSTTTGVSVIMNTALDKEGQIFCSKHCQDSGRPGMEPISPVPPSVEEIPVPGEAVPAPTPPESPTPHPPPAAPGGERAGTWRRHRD

[9] = target: Leucine-rich repeat serine/threonine-protein kinase 2 (Homo sapiens) (UniProt Q5S007); assay: LRRK2 Invitrogen selectivity data (BI); conditions: Compound concentration 3.0 uM
[10] = target: Mitogen-activated protein kinase kinase kinase 9 (Homo sapiens) (UniProt P80192); assay: MAP3K9 Invitrogen selectivity data (BI); conditions: Compound concentration 3.0 uM
[11] = target: Serine/threonine-protein kinase MARK1 (Homo sapiens) (UniProt Q9P0L2); assay: MARK1 Invitrogen selectivity data (BI); conditions: Compound concentration 3.0 uM
[12] = target: PI3-kinase p110-alpha/p85-alpha (Homo sapiens) (UniProt P27986+P42336); assay: PIK3CAPIK3R1 Invitrogen selectivity data (BI); type: protein-complex assay; conditions: Compound concentration 3.0 uM
[13] = target: Serine/threonine-protein kinase 25 (Homo sapiens) (UniProt O00506); assay: STK25 Invitrogen selectivity data (BI); conditions: Compound concentration 3.0 uM
[14] = target: T2, Serine/threonine-protein kinase TAO2 (Homo sapiens) (UniProt Q9UL54); assay: TAOK2 Invitrogen selectivity data (BI); conditions: Compound concentration 3.0 uM
T2 sequence (whole entry): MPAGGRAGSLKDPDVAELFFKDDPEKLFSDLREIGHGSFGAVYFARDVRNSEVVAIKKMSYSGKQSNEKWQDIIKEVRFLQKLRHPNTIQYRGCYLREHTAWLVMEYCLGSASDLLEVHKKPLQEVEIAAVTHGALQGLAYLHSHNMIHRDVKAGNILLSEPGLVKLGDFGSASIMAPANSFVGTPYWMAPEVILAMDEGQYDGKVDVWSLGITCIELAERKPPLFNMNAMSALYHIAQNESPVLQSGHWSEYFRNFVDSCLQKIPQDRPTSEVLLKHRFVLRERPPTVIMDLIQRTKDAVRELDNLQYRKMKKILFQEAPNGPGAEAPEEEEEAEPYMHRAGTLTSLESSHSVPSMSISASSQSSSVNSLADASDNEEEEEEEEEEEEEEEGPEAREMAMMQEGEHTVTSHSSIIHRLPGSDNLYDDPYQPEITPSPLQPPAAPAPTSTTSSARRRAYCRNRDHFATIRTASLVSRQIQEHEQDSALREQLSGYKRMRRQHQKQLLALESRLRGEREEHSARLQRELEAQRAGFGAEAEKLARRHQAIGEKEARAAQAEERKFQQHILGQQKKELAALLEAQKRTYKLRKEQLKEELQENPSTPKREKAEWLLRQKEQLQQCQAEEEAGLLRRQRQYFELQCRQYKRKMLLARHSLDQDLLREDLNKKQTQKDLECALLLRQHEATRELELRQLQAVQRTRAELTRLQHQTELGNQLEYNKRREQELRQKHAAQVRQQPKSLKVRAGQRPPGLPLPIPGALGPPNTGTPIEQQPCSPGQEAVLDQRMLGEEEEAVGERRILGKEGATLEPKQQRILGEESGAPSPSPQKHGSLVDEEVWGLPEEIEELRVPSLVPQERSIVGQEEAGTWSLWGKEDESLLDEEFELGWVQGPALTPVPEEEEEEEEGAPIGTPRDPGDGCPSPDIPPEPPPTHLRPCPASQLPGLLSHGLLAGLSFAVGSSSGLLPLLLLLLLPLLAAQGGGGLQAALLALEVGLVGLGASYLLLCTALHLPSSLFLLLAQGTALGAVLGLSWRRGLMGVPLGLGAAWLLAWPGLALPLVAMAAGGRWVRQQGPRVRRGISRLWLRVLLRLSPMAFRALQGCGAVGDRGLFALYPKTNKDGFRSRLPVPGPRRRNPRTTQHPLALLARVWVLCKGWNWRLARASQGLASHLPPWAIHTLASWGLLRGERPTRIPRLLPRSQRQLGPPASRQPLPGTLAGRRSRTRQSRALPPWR

Serine/threonine-protein kinase 25 (Homo sapiens), sequence (O00506 whole entry, looked up): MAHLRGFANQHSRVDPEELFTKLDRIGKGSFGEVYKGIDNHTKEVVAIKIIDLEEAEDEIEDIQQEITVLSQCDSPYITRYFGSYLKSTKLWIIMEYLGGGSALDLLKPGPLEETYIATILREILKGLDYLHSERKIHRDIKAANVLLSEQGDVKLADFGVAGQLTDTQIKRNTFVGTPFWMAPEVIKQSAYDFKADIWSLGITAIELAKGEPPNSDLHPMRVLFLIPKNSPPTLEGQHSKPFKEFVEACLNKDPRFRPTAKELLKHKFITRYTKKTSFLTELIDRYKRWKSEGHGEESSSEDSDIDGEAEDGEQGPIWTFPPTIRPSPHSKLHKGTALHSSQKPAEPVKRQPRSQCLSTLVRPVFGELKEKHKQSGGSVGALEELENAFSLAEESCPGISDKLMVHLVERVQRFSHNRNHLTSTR
Gamma-aminobutyric acid receptor subunit alpha-1 (Homo sapiens), sequence (P14867 whole entry): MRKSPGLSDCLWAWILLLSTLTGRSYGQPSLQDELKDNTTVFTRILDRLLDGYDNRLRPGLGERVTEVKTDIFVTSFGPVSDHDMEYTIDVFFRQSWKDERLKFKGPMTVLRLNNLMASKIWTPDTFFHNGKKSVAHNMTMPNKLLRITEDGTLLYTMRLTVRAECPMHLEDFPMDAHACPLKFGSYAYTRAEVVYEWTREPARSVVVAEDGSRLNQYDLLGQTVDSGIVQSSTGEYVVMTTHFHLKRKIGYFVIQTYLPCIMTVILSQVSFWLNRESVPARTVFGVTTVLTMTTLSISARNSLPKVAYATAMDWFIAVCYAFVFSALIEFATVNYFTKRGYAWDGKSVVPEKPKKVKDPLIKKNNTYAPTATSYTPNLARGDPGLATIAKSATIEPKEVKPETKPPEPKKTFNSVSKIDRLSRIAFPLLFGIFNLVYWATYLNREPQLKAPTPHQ
Acetylcholinesterase (Homo sapiens), sequence (P22303 whole entry): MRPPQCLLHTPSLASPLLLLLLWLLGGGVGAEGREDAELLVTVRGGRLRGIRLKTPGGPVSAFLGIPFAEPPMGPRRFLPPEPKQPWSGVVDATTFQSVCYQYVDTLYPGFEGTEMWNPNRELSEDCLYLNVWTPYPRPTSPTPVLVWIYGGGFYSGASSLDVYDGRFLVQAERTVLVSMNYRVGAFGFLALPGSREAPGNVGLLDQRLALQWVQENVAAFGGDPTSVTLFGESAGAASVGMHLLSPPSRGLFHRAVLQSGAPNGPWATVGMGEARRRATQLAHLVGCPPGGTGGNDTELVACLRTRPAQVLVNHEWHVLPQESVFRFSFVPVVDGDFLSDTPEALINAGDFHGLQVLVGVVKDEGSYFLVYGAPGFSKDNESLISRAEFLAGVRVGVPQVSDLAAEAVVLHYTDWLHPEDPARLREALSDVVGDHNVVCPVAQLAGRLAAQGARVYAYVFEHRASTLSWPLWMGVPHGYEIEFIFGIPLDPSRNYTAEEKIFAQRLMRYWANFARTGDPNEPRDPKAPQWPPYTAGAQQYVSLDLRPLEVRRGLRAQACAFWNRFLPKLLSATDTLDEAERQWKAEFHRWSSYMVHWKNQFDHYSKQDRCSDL
Alpha-2C adrenergic receptor (Homo sapiens), sequence (P18825 whole entry): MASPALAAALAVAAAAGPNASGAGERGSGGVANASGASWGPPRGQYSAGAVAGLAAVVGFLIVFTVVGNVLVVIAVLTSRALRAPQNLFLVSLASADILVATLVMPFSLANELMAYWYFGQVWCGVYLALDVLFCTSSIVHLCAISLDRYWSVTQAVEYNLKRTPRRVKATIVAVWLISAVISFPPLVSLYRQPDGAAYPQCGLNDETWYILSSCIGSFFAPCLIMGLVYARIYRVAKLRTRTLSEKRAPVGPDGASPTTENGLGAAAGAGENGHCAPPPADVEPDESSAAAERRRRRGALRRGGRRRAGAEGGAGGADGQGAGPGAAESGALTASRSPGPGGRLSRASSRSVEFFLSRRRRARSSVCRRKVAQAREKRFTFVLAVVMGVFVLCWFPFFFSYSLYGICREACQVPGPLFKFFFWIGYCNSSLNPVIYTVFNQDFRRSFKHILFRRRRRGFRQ
Calcium/calmodulin-dependent protein kinase type II subunit alpha (Homo sapiens), sequence (Q9UQM7 whole entry): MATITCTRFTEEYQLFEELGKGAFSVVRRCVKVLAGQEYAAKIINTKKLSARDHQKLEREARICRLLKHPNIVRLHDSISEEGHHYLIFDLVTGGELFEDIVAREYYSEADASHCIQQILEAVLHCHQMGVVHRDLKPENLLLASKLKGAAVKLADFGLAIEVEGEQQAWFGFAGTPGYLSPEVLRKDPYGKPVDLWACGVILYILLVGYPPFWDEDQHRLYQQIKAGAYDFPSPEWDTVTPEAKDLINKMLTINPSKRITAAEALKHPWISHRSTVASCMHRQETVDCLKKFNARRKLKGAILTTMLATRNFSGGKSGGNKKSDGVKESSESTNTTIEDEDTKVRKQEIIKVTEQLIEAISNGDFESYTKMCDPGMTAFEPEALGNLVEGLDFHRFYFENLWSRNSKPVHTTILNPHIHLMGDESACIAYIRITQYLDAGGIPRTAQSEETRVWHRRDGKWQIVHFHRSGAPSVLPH
Leucine-rich repeat serine/threonine-protein kinase 2 (Homo sapiens), sequence (Q5S007 whole entry): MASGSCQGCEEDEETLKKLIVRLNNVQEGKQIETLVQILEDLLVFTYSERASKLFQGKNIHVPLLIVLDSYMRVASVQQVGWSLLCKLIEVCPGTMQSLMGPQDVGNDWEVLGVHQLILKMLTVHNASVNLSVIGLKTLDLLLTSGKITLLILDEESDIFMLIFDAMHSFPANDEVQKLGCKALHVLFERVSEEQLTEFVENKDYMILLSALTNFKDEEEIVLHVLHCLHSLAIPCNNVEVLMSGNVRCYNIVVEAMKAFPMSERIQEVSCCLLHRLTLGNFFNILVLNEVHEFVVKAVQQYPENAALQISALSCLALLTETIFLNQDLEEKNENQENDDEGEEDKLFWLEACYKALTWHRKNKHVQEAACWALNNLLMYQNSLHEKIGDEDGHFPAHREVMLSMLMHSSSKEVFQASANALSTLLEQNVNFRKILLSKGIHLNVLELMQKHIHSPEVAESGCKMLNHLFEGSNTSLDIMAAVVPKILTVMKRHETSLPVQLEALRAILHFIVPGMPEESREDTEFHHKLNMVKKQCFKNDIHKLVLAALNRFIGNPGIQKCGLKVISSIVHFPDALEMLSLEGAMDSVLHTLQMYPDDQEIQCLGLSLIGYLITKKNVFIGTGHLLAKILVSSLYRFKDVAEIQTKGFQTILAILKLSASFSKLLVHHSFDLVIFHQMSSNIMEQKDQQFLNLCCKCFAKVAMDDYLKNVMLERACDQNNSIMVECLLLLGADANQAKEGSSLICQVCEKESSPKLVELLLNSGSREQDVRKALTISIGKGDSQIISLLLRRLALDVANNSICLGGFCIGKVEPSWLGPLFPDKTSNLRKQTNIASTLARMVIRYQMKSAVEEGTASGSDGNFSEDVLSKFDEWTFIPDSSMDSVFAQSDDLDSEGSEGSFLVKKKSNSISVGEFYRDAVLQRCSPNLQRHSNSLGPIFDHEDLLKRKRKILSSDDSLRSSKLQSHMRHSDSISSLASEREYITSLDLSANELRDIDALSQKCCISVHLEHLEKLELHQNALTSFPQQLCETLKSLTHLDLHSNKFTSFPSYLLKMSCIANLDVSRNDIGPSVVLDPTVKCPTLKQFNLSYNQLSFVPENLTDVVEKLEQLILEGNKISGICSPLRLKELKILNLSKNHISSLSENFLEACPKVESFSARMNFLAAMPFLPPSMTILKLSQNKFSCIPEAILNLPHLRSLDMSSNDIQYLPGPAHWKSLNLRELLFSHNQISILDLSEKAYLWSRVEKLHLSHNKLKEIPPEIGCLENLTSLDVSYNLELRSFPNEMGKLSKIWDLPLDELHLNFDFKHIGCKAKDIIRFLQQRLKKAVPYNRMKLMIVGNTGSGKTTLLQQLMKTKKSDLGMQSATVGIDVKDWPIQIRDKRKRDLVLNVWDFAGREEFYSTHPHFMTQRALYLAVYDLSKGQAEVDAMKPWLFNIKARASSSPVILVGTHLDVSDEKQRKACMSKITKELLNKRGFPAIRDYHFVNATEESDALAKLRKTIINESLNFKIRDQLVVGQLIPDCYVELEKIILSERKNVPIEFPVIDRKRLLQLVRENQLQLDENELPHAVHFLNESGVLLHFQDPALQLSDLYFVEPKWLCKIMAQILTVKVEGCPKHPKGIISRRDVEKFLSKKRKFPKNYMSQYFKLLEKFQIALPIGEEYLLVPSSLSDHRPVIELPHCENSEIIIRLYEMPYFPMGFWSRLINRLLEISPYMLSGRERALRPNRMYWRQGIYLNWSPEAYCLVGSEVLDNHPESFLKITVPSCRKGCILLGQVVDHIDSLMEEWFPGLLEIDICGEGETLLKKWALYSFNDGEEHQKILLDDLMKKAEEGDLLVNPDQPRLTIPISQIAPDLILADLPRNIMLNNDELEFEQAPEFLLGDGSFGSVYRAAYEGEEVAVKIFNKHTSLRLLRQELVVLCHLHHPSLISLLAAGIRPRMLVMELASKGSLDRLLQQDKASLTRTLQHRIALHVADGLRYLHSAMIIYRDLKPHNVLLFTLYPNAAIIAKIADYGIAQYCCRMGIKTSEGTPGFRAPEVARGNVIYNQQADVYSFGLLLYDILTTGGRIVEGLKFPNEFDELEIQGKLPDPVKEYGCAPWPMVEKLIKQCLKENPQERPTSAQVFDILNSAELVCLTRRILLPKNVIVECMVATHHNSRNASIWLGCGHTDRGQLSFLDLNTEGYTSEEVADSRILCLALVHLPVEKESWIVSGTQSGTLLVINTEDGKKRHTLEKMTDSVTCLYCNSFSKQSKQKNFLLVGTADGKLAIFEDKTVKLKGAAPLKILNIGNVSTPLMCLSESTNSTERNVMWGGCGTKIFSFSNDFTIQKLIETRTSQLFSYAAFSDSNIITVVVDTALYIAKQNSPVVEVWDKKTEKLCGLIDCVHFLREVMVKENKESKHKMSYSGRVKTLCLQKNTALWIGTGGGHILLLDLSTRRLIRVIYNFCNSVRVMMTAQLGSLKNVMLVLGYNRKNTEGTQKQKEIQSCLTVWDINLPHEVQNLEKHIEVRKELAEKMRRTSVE

CN(C)C(=O)Cn1cc(-c2nc(C3(c4ccc(-c5cnc(N)nc5)cc4)CC3)no2)cn1 [BI 0153]
inactive: inhibition [1] 4.1%

CN(C)C(=O)Cn1cc(-c2nc([C@@](C)(c3ccc(-c4cnc(N)nc4)cc3)C3CC3)no2)cn1 [BI 665915]
inactive: residual activity [2] 98% | residual activity [3] 117% | residual activity [4] 105% | residual activity [5] 94% | residual activity [6] 84% | residual activity [7] 103% | residual activity [8] 97% | residual activity [9] 96% | residual activity [10] 91% | residual activity [11] 98% | residual activity [12] 104% | residual activity [13] 106% | residual activity [14] 100%
